Results on four compounds are retold here after patent US20100260675A1, “Oxytocin Receptor Antagonists and Their Use for the Treatment of Pulmonary Related Diseases” (priority 2004, published 2010).

Assay [1] deals with T1, Oxytocin Receptor on human airway smooth muscle cells (HASMC) (Homo sapiens, UniProt P30559).
T1 construct: the Oxytocin Receptor expressed on the surface of human airway smooth muscle cells is functional; endogenous in cells; host or cells: primary human airway smooth muscle cells (HASMC)
T1 sequence (P30559 1-389): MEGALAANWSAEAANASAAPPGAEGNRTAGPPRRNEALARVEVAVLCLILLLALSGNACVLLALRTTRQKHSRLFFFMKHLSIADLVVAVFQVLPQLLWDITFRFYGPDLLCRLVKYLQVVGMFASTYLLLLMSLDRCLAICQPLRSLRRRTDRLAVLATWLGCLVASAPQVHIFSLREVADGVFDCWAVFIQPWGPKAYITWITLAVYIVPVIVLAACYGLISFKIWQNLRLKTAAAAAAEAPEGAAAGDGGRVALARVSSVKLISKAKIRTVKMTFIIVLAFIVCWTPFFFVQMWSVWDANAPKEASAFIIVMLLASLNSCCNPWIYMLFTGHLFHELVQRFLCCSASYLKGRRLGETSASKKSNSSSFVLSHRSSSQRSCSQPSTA
In words: Calcium influx in human airway smooth muscle cells after addition of oxytocin. Particulars: FIG. 4. The format is cell-based. As for the experimental part: In order to determine whether the Oxytocin Receptor expressed on the surface of human airway smooth muscle cells is functional, the amount of influx of calcium was measured. HASMC were serum starved and then either unstimulated or stimulated with IL-13 (50 ng/ml) for 24 hours. The amount of calcium that mobilized Into the cells was measured after addition of oxytocin (100 nM or 500 nM).

In assay [2] the test system is Oxytocin Receptor (OXTR) mRNA in primary human airway smooth muscle cells. The assay can be described thus: Real Time PCR analysis of oxytocin receptor mRNA in cytokine-stimulated primary human airway smooth muscle cells. Particulars: for level of OXTR mRNA normalized to 18S mRNA and relative to untreated control (0 hour timepoint): primary HASMC from normal donors, 50 ng/ml; for induced expression of the Oxytocin Receptor normalized to 18S and relative to untreated control (0 hour timepoint): primary HASMC from two normal donors, 10 ng/ml. The format is cell-based. As to the method:
In order to confirm the microarray finding by an independent means, Real Time PCR technology was employed. Primary human airway smooth muscle cells from “normal” donors were cultured with IL-13 or a naturally occurring mutant form IL-13R130Q (associated with high serum IgE levels) for 0, 6 hours or 18 hours at 50 ng/ml after allowing the cell to rest for 24 hours. Total RNA was isolated, reverse transcribed and used in Real Time PCR analysis for oxytocin receptor using the Applied Biosystems Gene Expression Assay (ID number Hs00168573_m1) on the ABI PRISM® 7900HT Sequence Detection System. At 6 hours, the level of OXTR mRNA normalized to 18S mRNA and relative to untreated control (i.e., 0 hour time point) was 1.95 (Std Dev. 0.41) when cells were stimulated with WT IL-13 and 1.79 (Std Dev. 0.22) when stimulated with R130Q. At 18 hours, the level of OXTR mRNA normalized to 18S mRNA and relative to untreated control (i.e., 0 hour timepoint) was 2.02 (Std Dev. 0.42) when the cells were stimulated with WT IL-13 and 3.58 (Std Dev. 0.74) when stimulated with R130Q.
Primary human airway smooth muscle cells from two “normal” donors were cultured with tumor necrosis factor alpha (TNFα) for 0, 6 hours or 18 hours at 10 ng/ml after resting the cells for 24 hours. Total RNA was isolated, reverse transcribed and used in Real Time PCR analysis for the Oxytocin Receptor. TNFα induced the expression of the Oxytocin Receptor by 4.88 (Std Dev. 1.13) at 6 hours and 7.06 (Std. Dev. 1.42) at the 18-hour time point normalized to 18S and relative to untreated control (i.e., 0 hour timepoint).

Assay [3] deals with Oxytocin Receptor mRNA in trachea. In words: Oxytocin Receptor RNA expression in trachea, in vivo model of acute asthma (Real Time PCR). The following applies: mice immunized i.p. day 1 and 8, challenged intranasally days 22-24, trachea day 25. As to the method: The RNA expression of Oxytocin Receptor in an in vivo model of acute asthma was tested. The mice were immunized with ovalbumin intraperitoneal on day 1 and day 8 and then challenged intranasally on days 22, 23 and 24. On day 25, the mice were euthanized. The trachea were extracted for RNA isolation and used in Real Time PCR analysis for Oxytocin Receptor.

On to `CC[C@H](C)[C@@H]1NC(=O)[C@H](Cc2ccc(O)cc2)NC(=O)[C@@H](N)CSSC[C@@H](C(=O)N2CCC[C@H]2C(=O)N[C@@H](CC(C)C)C(=O)NCC(N)=O)NC(=O)[C@H](CC(N)=O)NC(=O)[C@H](CCC(N)=O)NC1=O` [oxytocin], for which the “Ca influx in human airway smooth muscle cells” value in assay [1] (serum-starved HASMC, oxytocin 100 nM or 500 nM) is “induces Ca influx”.

Take “IL-13: wild-type interleukin 13, Th2 derived cytokine used to stimulate airway smooth muscle cells”: the “level of OXTR mRNA normalized to 18S mRNA and relative to untreated control (0 hour timepoint)” value in assay [2] (6 hours) is reported as 1.95 (Std Dev. 0.41); in assay [2] (18 hours) it was 2.02 (Std Dev. 0.42). Further, the “effect on oxytocin-induced calcium influx in HASMC” value in assay [1] (IL-13 50 ng/ml for 24 hours, at low concentrations of oxytocin) is “further enhances calcium influx”.

As to TNFα, the results for the “induced expression of the Oxytocin Receptor normalized to 18S and relative to untreated control (0 hour timepoint)” value in assay [2] (18-hour time point) and in assay [2] (6 hours) were 7.06 (Std. Dev. 1.42) and 4.88 (Std Dev. 1.13), respectively. With “ovalbumin: allergen used to immunize and challenge mice in the acute asthma model”, the “Oxytocin Receptor mRNA in trachea compared to PBS control” value in assay [3] was found to be 1.5 fold.
